# Reference: patent US8212038B2, “Methods and compositions for controlling ectoparasites” (HatchTech Pty Ltd., priority 2003, dated 2012)
# Tests used:
# lice eggs = assay: Time course in vitro lice egg hatching assay; assay type: in vivo, Pediculus humanus humanus; settings: for effect on egg hatching (in words): results not shown; for inhibition of lice egg hatching (in words): in vivo
# [1] = tested on: Plutella xylostella eggs (Waite strain); assay: Egg hatch of Plutella xylostella after dipping in inhibitor
# Description: The egg masses were then placed in a humid box at 25 degrees until egg hatch. Control eggs were exposed to absolute methanol as described above. At day 6 post laying the eggs were assessed from the different treatments and the percentage of egg hatch determined relative to the control as shown in Table 9.
# Batches of Plutella eggs that were laid on either fine cloth or parafilm were dipped in a specific inhibitor solution for between 2-10 seconds, the excess solution was drained by blotting with dry tissue paper. The egg masses were then placed in a humid box at 25 degrees until egg hatch. Control eggs were exposed to absolute methanol as described above or not treated.
# The egg masses were then placed in a humid box at 25 degrees until egg hatch. Control eggs were exposed to absolute ethanol as described above. On day 6 post laying the eggs were assessed from the different treatments and the percentage of egg hatch determined relative to the control.
# [2] = tested on: Helicoverpa armigera eggs (Tatura×Toowoomba strains); assay: Egg hatch of Helicoverpa armigera after exposure to inhibitor; settings: for % Inhibition of egg hatch relative to control / Number hatched / Number unhatched / % Inhibition of egg hatch relative to the control: day 6 post laying
# Description: Several hundred Helicoverpa armigera eggs (Tatura×Toowoomba strains) were collected, that had been laid on fine mesh cloth over a 24 hour period.
# Batches of Helicoverpa eggs were exposed to a specific inhibitor solution for between 2-10 seconds the excess solution drained by blotting with dry tissue paper. The egg masses were then placed in a humid box at 25 degrees until egg hatch. Control eggs were exposed to absolute methanol as described above.
# B. ovis eggs = assay: Egg hatching in Bovicola ovis; assay type: in vivo; settings: 10 mM; for inhibition of egg hatching (in words): 10 or 1 minute exposure
# Description: B. ovis eggs were collected from the wool of sheep that were infested with this parasite. The eggs were collected using forceps and with the aid of a dissecting microscope and placed in 24 well tissue culture plates in duplicate lots of 10 eggs per replicate. The eggs were then exposed to either methanol alone (control) or the test compounds for either 10 minutes or 1 minute before being removed from the wells and placed into individual glass vials containing a diet at the base of the tube. The tubes were placed in plastic containers containing a salt solution (to keep humidity constant at 68%) and the containers maintained at a temperature 32° C. The eggs were monitored for hatching over the following 12 days and % hatch inhibition determined in comparison to the controls.
# [3] = tested on: Plutella xylostella eggs (Waite strain); assay: Reversal of ovicidal effect by FeSO4 on Plutella xylostella eggs; assay type: in vivo; settings: for effect of added Fe (FeSO4) on the ovicidal effect (in words): 10 mM inhibitor, then FeSO4 10, 5 or 1 mM
# Description: (§1) Within 24 hours of collection the following experimental design was chosen. Batches of eggs were exposed to 10 mM 6,69-dimethyl-2,29-dipyridyl for 2 seconds while additional batches of eggs were exposed to the solvent only (Methanol) for 2 seconds. All batches of eggs were allowed to air dry for 20 minutes at room temperature. The eggs were then given a 2 second exposure to FeSO4 at either 10, 5 or 1 mM, air dried and put in the incubator at 24° C. and allowed to hatch over the next 6 days. In addition, a positive control of 10 mM 6,69-dimethyl-2,29-dipyridyl was set up in which eggs were exposed to this compound for 2 seconds, air dried and placed in the incubator.
# as §1, with “10 mM 5,59-dimethyl-2,29-dipyridyl for 2” for “10 mM 6,69-dimethyl-2,29-dipyridyl for 2”, “FeSO4 at 10, 5” for “FeSO4 at either 10, 5”, “put in an incubator at” for “put in the incubator at”, “of 10 mM, 5,59-dimethyl-2,29-dipyridyl was set” for “of 10 mM 6,69-dimethyl-2,29-dipyridyl was set”
# [4] = 10 and 1 mM, listed as 6,6′ dimethyl-2,2′ dipyridyl
# [5] = per replicate, […], concentration not given
# [6] = Example 12, 0.001 mM, day 6 post laying
# [7] = Example 12, 0.01 mM, day 6 post laying
# [8] = Example 12, 0.1 mM, day 6 post laying
# [9] = Example 12, 1 mM, day 6 post laying
# [10] = Example 12, 10 mM, day 6 post laying
# [11] = Example 13, eggs laid on cloth, 0.01 mM
# [12] = Example 13, eggs laid on cloth, 0.1 mM
# [13] = Example 13, eggs laid on cloth, 1 mM
# [14] = Example 13, eggs laid on cloth, 10 mM
# [15] = Example 13, eggs laid on parafilm, 0.01 mM
# [16] = Example 13, eggs laid on parafilm, 0.1 mM
# [17] = Example 13, eggs laid on parafilm, 1 mM
# [18] = Example 13, eggs laid on parafilm, 10 mM
# [19] = 10 mM followed by 2 second exposure to 1 mM FeSO4
# [20] = 10 mM followed by 2 second exposure to 5 mM FeSO4
# [21] = 10 mM followed by 2 second exposure to 10 mM FeSO4
# [22] = 10 mM followed by 2 second exposure to MEOH
# [23] = 10 mM, 2 seconds, (+ve) control, no second exposure
compound,measurement,setting,value
"O=C(O)CN(CCN(CC(=O)O)CC(=O)O)CC(=O)O [EDTA, reference compound]",effect on egg hatching (in words),lice eggs; 100 mM,did not appear to have an effect on egg hatching
c1ccc(-c2ccc3ccccc3n2)nc1 [2-(2-pyridinyl)quinoline],inhibition of egg hatching in Plutella xylostella (in words),[1]; 10 mM,able to inhibit egg hatching
"Cc1cccc(-c2cccc(C)n2)n1 [6,6′-dimethyl-2,2′-dipyridyl]",inhibition of egg hatching of Helicoverpa armigera (in words),[2]; 0.1 mM,no inhibition of egg hatching
same,inhibition of egg hatching of Helicoverpa armigera (in words),[2]; 10 and 1 mM,significantly inhibit the egg hatching
same,inhibition of egg hatching of Helicoverpa armigera (in words),[2]; [4],significantly inhibit egg hatching
same,% Inhibition of egg hatch relative to control,"[2]; Example 14, 0.001 mM",0%
same,% Inhibition of egg hatch relative to control,"[2]; Example 14, 0.01 mM",0%
same,% Inhibition of egg hatch relative to control,"[2]; Example 14, 0.1 mM",0%
same,% Inhibition of egg hatch relative to control,"[2]; Example 14, 1 mM",97%
same,Number hatched,"[2]; Example 14, 1 mM",4
same,Number unhatched,"[2]; Example 14, 1 mM",140
same,% Inhibition of egg hatch relative to control,"[2]; Example 14, 10 mM",94%
same,Number hatched,"[2]; Example 14, 10 mM",7
same,Number unhatched,"[2]; Example 14, 10 mM",98
same,% Inhibition of egg hatch relative to the control,"[2]; Example 15, 0.1 mM",0%
same,Number hatched,"[2]; Example 15, 0.1 mM",70
same,Number unhatched,"[2]; Example 15, 0.1 mM",0
same,% Inhibition of egg hatch relative to the control,"[2]; Example 15, 1 mM",97%
same,Number hatched,"[2]; Example 15, 1 mM",2
same,Number unhatched,"[2]; Example 15, 1 mM",61
same,% Inhibition of egg hatch relative to the control,"[2]; Example 15, 10 mM",94%
same,Number hatched,"[2]; Example 15, 10 mM",3
same,Number unhatched,"[2]; Example 15, 10 mM",48
same,inhibition of egg hatching of Helicoverpa armigera (in words),[2]; concentrations below 1 mM,No inhibition
same,inhibition of lice egg hatching (in words),lice eggs,completely inhibited
same,H (number of eggs successfully hatched),lice eggs; [5],0
same,Ph (number of eggs partly hatched),lice eggs; [5],0
same,inhibition of egg hatching (in words),B. ovis eggs,completely inhibited
same,% Inhibition,B. ovis eggs; 1 minute exposure,100%
same,% Inhibition,B. ovis eggs; 10 minute exposure,100%
same,inhibition of egg hatching in Plutella xylostella (in words),[1]; 0.1 and 0.01 mM,no observable effects on egg hatching
same,inhibition of egg hatching in Plutella xylostella (in words),[1]; [4],strong ovicidal effects
same,inhibition of egg hatching in Plutella xylostella (in words),"[1]; 10 and 1 mM, listed as 6,6′-dimethyl-2,2′ dipyridyl",effective at inhibiting egg hatching
same,% Inhibition of egg hatch relative to control,[1]; [6],0%
same,Number hatched,[1]; [6],11
same,Number unhatched,[1]; [6],6
same,% Inhibition of egg hatch relative to control,[1]; [7],0%
same,Number hatched,[1]; [7],13
same,Number unhatched,[1]; [7],7
same,% Inhibition of egg hatch relative to control,[1]; [8],0%
same,Number hatched,[1]; [8],23
same,Number unhatched,[1]; [8],29
same,% Inhibition of egg hatch relative to control,[1]; [9],100%
same,Number hatched,[1]; [9],0
same,Number unhatched,[1]; [9],26
same,% Inhibition of egg hatch relative to control,[1]; [10],100%
same,Number hatched,[1]; [10],0
same,Number unhatched,[1]; [10],79
same,% Inhibition of egg hatch relative to controls,[1]; [11],12%
same,Number hatched,[1]; [11],23
same,Number unhatched,[1]; [11],4
same,% Inhibition of egg hatch relative to controls,[1]; [12],0%
same,Number hatched,[1]; [12],49
same,Number unhatched,[1]; [12],49
same,% Inhibition of egg hatch relative to controls,[1]; [13],100%
same,Number hatched,[1]; [13],0
same,Number unhatched,[1]; [13],23
same,% Inhibition of egg hatch relative to controls,[1]; [14],100%
same,Number hatched,[1]; [14],0
same,Number unhatched,[1]; [14],53
same,% Inhibition of egg hatch relative to controls,[1]; [15],0%
same,Number hatched,[1]; [15],92
same,Number unhatched,[1]; [15],4
same,% Inhibition of egg hatch relative to controls,[1]; [16],7%
same,Number hatched,[1]; [16],65
same,Number unhatched,[1]; [16],70
same,% Inhibition of egg hatch relative to controls,[1]; [17],100%
same,Number hatched,[1]; [17],0
same,Number unhatched,[1]; [17],63
same,% Inhibition of egg hatch relative to controls,[1]; [18],100%
same,Number hatched,[1]; [18],0
same,% Inhibition,[3]; [19],3%
same,Number hatched,[3]; [19],33
same,Number unhatched,[3]; [19],1
same,% Inhibition,[3]; [20],0%
same,Number hatched,[3]; [20],25
same,Number unhatched,[3]; [20],0
same,% Inhibition,[3]; [21],38%
same,Number hatched,[3]; [21],12
same,Number unhatched,[3]; [21],19
same,% Inhibition,[3]; [22],90%
same,Number hatched,[3]; [22],3
same,Number unhatched,[3]; [22],28
same,effect of added Fe (FeSO4) on the ovicidal effect (in words),[3],able to reverse the effects
same,% Inhibition,[3]; [23],100%
same,Number hatched,[3]; [23],0
same,Number unhatched,[3]; [23],44
"O=C(O)CN(CCOCCOCCN(CC(=O)O)CC(=O)O)CC(=O)O [EGTA, reference compound]",effect on egg hatching (in words),lice eggs; 10 mM,did not appear to have an effect on egg hatching
"CC(C)C[C@H](CC(=O)O)C(=O)N[C@@H](Cc1c[nH]c2ccccc12)C(=O)N[C@@H](C)c1ccccc1 [GM 1489, reference compound]",% Inhibition of lice egg hatching (maximum over the time-course),lice eggs; concentration not given,0%
"Cc1ccnc(-c2cc(C)ccn2)c1 [4,4′-dimethyl-2,2′-dipyridyl]",inhibition of egg hatching of Helicoverpa armigera (in words),[2]; 1 mM,significant inhibition of egg hatching
same,inhibition of egg hatching of Helicoverpa armigera (in words),[2]; 10 mM,significant inhibition of egg hatching
same,% Inhibition of egg hatch relative to the control,"[2]; Example 15, 1 mM",66%
same,Number hatched,"[2]; Example 15, 1 mM",23
same,Number unhatched,"[2]; Example 15, 1 mM",29
same,% Inhibition of egg hatch relative to the control,"[2]; Example 15, 10 mM",84%
same,Number hatched,"[2]; Example 15, 10 mM",8
same,Number unhatched,"[2]; Example 15, 10 mM",43
same,inhibition of egg hatching in Plutella xylostella (in words),[1]; 10 and 1 mM,significantly inhibit egg hatching
same,% Inhibition of egg hatch relative to controls,[1]; [13],100%
same,Number hatched,[1]; [13],0
same,Number unhatched,[1]; [13],30
same,% Inhibition of egg hatch relative to controls,[1]; [14],100%
same,Number hatched,[1]; [14],0
same,Number unhatched,[1]; [14],36
same,% Inhibition of egg hatch relative to controls,[1]; [17],91%
same,Number hatched,[1]; [17],10
same,% Inhibition of egg hatch relative to controls,[1]; [18],100%
same,Number hatched,[1]; [18],0
"Cc1ccc(-c2ccc(C)cn2)nc1 [5,5′-dimethyl-2,2′-dipyridyl]",inhibition of egg hatching of Helicoverpa armigera (in words),[2]; 10 mM,significant inhibition of egg hatching
same,% Inhibition of egg hatch relative to the control,"[2]; Example 15, 10 mM",100%
same,Number hatched,"[2]; Example 15, 10 mM",0
same,Number unhatched,"[2]; Example 15, 10 mM",42
same,inhibition of egg hatching (in words),B. ovis eggs,completely inhibited
same,% Inhibition,B. ovis eggs; 1 minute exposure,100%
same,% Inhibition,B. ovis eggs; 10 minute exposure,100%
same,inhibition of egg hatching in Plutella xylostella (in words),[1]; 10 and 1 mM,significantly inhibit egg hatching
same,% Inhibition of egg hatch relative to controls,[1]; [13],78%
same,Number hatched,[1]; [13],5
same,Number unhatched,[1]; [13],22
same,% Inhibition of egg hatch relative to controls,[1]; [14],100%
same,Number hatched,[1]; [14],0
same,Number unhatched,[1]; [14],21
same,% Inhibition of egg hatch relative to controls,[1]; [17],88%
same,Number hatched,[1]; [17],18
same,% Inhibition of egg hatch relative to controls,[1]; [18],100%
same,Number hatched,[1]; [18],0
same,% Inhibition,[3]; [19],0%
same,Number hatched,[3]; [19],39
same,Number unhatched,[3]; [19],0
same,% Inhibition,[3]; [20],0%
same,Number hatched,[3]; [20],25
same,Number unhatched,[3]; [20],0
same,% Inhibition,[3]; [21],8%
same,Number hatched,[3]; [21],23
same,Number unhatched,[3]; [21],2
same,% Inhibition,[3]; [22],55%
same,Number hatched,[3]; [22],16
same,Number unhatched,[3]; [22],19
same,effect of added Fe (FeSO4) on the ovicidal effect (in words),[3],able to reverse the effects
same,% Inhibition,[3]; [23],100%
same,Number hatched,[3]; [23],0
same,Number unhatched,[3]; [23],38
"c1ccc(-c2ccccn2)nc1 [2,29-dipyridyl]",inhibition of lice egg hatching (in words),lice eggs,completely inhibited
same,Ph (number of eggs partly hatched),lice eggs; [5],0
